Results taken from patent US20110166112A1, “METHOD FOR STIMULATING PLATELET PRODUCTION” (Eisai, Inc., priority 2009, published 2011).

Test system: subjects with chronic ITP
Assay: Treatment-emergent bleeding events (WHO Bleeding Scale; Kaplan-Meier time to first bleeding event)
Assay type: in vivo, human
Excerpt: As used herein, the term “bleeding” refers to any bleeding, as measured by the World Health Organization's Bleeding Scale (e.g., Grade 0=no bleeding; Grade 1=petechial bleeding; Grade 2=clinical significant mild blood loss; […]=gross (severe) blood loss, requiring transfusion; Grade 5=debilitating blood loss, retinal or cerebral associated with fatality). In some embodiments, the bleeding may be due to a low platelet count.
Bleeding Events. During the combined study period, 43 (67.2%) of the 64 subjects reported a treatment-emergent bleeding event (Table 23). Gingival bleeding was the most frequently reported bleeding event, occurring in 7 subjects (10.9%). All were grade 1 (n=6) or grade 2 (n=1) and none were considered to be related to study drug.
Using Kaplan-Meier methods, the estimated median time to the first bleeding event was 8 weeks (95% CI: 4.7-15.3 weeks) after initiation of E5501 (FIG. 5).

[1] = Lower ⅓ dose (2.5-<8.85 mg), N=22
[2] = Middle ⅓ dose (≧8.85-<13.5 mg), N=22
[3] = Upper ⅓ dose (≧13.5-≦25.7 mg), N=20

## O=C(Nc1nc(-c2cc(Cl)cs2)c(N2CCN(C3CCCCC3)CC2)s1)c1cnc(N2CCC(C(=O)O)CC2)c(Cl)c1 [E5501, 1-(3-chloro-5-{[4-(4-chlorothiophen-2-yl)-5-(4-cyclohexylpiperazin-1-yl)thiazol-2-yl]carbamoyl}pyridine-2-yl)piperidine-4-carboxylic acid]
E5501 Total, N=64
  Any TE bleeding event, % of subjects: (67.2) %
  Any TE bleeding event, n of subjects: 43
  TE bleeding event, highest toxicity Grade 1, % of subjects: (45.3) %
  TE bleeding event, highest toxicity Grade 1, n of subjects: 29
  TE bleeding event, highest toxicity Grade 2, % of subjects: (17.2) %
  TE bleeding event, highest toxicity Grade 2, n of subjects: 11
  TE bleeding event, highest toxicity Grade 3, % of subjects: (4.7) %
  TE bleeding event, highest toxicity Grade 3, n of subjects: 3
  TE bleeding event, highest toxicity Grade 4, % of subjects: (1.6) %
  TE bleeding event, highest toxicity Grade 4, n of subjects: 1
  TE bleeding event, highest toxicity Grade 5, n of subjects: 0
Kaplan-Meier, after initiation of E5501, 95% CI: 4.7-15.3 weeks
  estimated median time to the first bleeding event: 8 weeks
[1]
  Any TE bleeding event, % of subjects: (68.2) %
  Any TE bleeding event, n of subjects: 15
  TE bleeding event, highest toxicity Grade 1, % of subjects: (50.0) %
  TE bleeding event, highest toxicity Grade 1, n of subjects: 11
  TE bleeding event, highest toxicity Grade 2, % of subjects: (9.1) %
  TE bleeding event, highest toxicity Grade 2, n of subjects: 2
  TE bleeding event, highest toxicity Grade 3, % of subjects: (4.5) %
  TE bleeding event, highest toxicity Grade 3, n of subjects: 1
  TE bleeding event, highest toxicity Grade 4, % of subjects: (4.5) %
  TE bleeding event, highest toxicity Grade 4, n of subjects: 1
  TE bleeding event, highest toxicity Grade 5, n of subjects: 0
[2]
  Any TE bleeding event, % of subjects: (63.6) %
  Any TE bleeding event, n of subjects: 14
  TE bleeding event, highest toxicity Grade 1, % of subjects: (40.9) %
  TE bleeding event, highest toxicity Grade 1, n of subjects: 9
  TE bleeding event, highest toxicity Grade 2, % of subjects: (13.6) %
  TE bleeding event, highest toxicity Grade 2, n of subjects: 3
  TE bleeding event, highest toxicity Grade 3, % of subjects: (9.1) %
  TE bleeding event, highest toxicity Grade 3, n of subjects: 2
  TE bleeding event, highest toxicity Grade 4, n of subjects: 0
  TE bleeding event, highest toxicity Grade 5, n of subjects: 0
[3]
  Any TE bleeding event, % of subjects: 70.0%
  Any TE bleeding event, n of subjects: 14
  TE bleeding event, highest toxicity Grade 1, % of subjects: 40.0%
  TE bleeding event, highest toxicity Grade 1, n of subjects: 8
  TE bleeding event, highest toxicity Grade 2, % of subjects: 30.0%
  TE bleeding event, highest toxicity Grade 2, n of subjects: 6
  TE bleeding event, highest toxicity Grade 3, n of subjects: 0
  TE bleeding event, highest toxicity Grade 4, n of subjects: 0
  TE bleeding event, highest toxicity Grade 5, n of subjects: 0
Combined study period
  subjects with a clinically significant, grade 3 or 4 bleeding event: Four
Combined study period, 64 subjects
  subjects reporting a treatment-emergent bleeding event: 67.2%
